Test results from US10611748B2, “Xanthone derivatives for the treatment of hepatitis B virus disease” (Hoffmann-La Roche Inc., priority 2017, dated 2020).

system: cccDNA level in HepDES19 cells; experiment: cccDNA Southern Blot assay; assay type: cell-based, HBV; conditions: 5 days' compound treatment, Hirt DNA, serial dilutions
Protocol: HepDES19 cells were seeded at 4×10^6 cells per T150 in the culture medium (Dulbecco's Modified Eagle Medium: Nutrient Mixture F-12 (DMEM:F12, Gibco Cat. 11320-82), 10% Fetal Bovine Serum (FBS, Clontech Cat. 631101), 0.1 mM Non-Essential Amino Acids Solution (NEAA, Gibco Cat. 11140-050), […] Penicillin-Streptomycin (PS, Invitrogen Cat. 15140-163), 500 μg/mL Geneticin (G418, Invitrogen Cat. 10131-027) in the absence of Tet for 8 days. These cells were seeded at the density of 1×10^6 cells per well in 6-well plate. At 24 hrs after seeding, serial dilutions of compounds made with DMSO (Sigma, Cat. D2650) were further diluted with the same culture medium as described above before they were added to the cells to reach desired final compound concentrations and 1% DMSO concentration. After 5 days' compound treatment, the cells growing in one well from 6-well plate were re-suspended with 500 μL re-suspension buffer (50 mM tris[hydroxymethyl]aminomethane pH 7.5), 10 mM ethylenediaminetetraacetic acid (EDTA), 50 μg/mL RNase A (Qiagen, Cat. 158922). 500 μL of 1.2% sodium dodecyl sulfate (SDS) was then added into the re-suspended cells to lyse the cells. After 15 minutes' incubation, 700 μL precipitation buffer (3M cesium chloride, 1M potassium acetate, 0.67M acetic acid) was added and the lysate was incubated at 4° C. for 2 h. The lysate was centrifuged at 15000 revolutions per minute (RPM) at 4° C. for 15 minutes. The supernatant was collected and loaded onto Qiagen miniprep columns (QIAprep spin Mini prep kit, Cat. No. 27016). After centrifugation for 1 minute at 15000 RPM, the column was washed once with 750 µL wash buffer PE from QIAprep spin Mini prep kit. 80 μL of double distilled water was loaded to the columns to elute Hirt DNA.
Hirt DNA of each sample was loaded into 1.2% lx tris-acetate electrophoresis (TAE) agarose gel and separated at 90 voltages for 3 hours. The gel was then treated in 50 mM NaAc—HAc, pH4.2 for 30 min at room temperature (RT), and then denatured by soaking in denaturation buffer (0.5 M sodium hydroxide, 1.5 M sodium chloride) at RT for 30-45 min. The gel was then treated with neutralization buffer (1M tris[hydroxymethyl]aminomethane pH7.4 and 1.5M NaCl) at RT for 30 to 45 min.
The gel was transferred onto a pre-wet Nylon membrane (GE life science, Hybond N+) by capillary transfer method overnight, followed by UV crosslinking. The membrane was transferred into a hybridization tube, then rinsed with double distilled water at 60° C. for 5 mins. 10 mL of hybridization buffer (Lab kits, China) was added, the resulting sample was rotated in hybridization oven at 60° C. for 1 hour. Digoxigenin (DIG)-labelled HBV probe (SEQ ID NO: 1) was denatured at 95° C. for 10 minutes, and then 7 μL of denatured probe was added to the hybridization tube, which was rotated in hybridization oven at 60° C. overnight.
On the second day, the membrane was washed according to the procedure of DIG wash and block buffer set kit (Roche, Cat. 11 585 762 001), and then incubated with 50 mL antibody solution (Antibody anti-Digoxigenin-AP Fab fragment (Roche Cat. 11093274910) diluted in fresh 1× blocking buffer at 1:10,000) for 1 hour. The membrane was washed with 50 mL washing buffer (1× Maleic buffer with 0.3% Tween-20) for 15 minutes twice, and equilibrated with 20 mL detection buffer (0.1M tris[hydroxymethyl]aminomethane pH9.5, 0.1M sodium chloride) for 5 minutes. CDP-Star substrate (Roche, Cat. 12041677001) was added to the membrane for 5 minutes, and then the membrane was scanned by Bio-Rad Visualize Image System (Biorad, ChemiDoc-MP, Serial No. 731BR00916).

SMILES	cccDNA level in HepDES19 cells (Southern Blot)
O=C(O)C1CCN(c2ccc3c(=O)c4cccc(Cl)c4oc3c2)C1 (centres unmarked) [Example 2, 1-(5-chloro-9-oxo-xanthen-3-yl)pyrrolidine-3-carboxylic acid]	dose-dependently reduced cccDNA level
O=C(O)[C@@H]1CCN(c2ccc3c(=O)c4cccc(Cl)c4oc3c2)C1 [Example 3, (3R)-1-(5-chloro-9-oxo-xanthen-3-yl)pyrrolidine-3-carboxylic acid]	dose-dependently reduced cccDNA level
O=C(O)[C@H]1CCN(c2ccc3c(=O)c4cccc(Cl)c4oc3c2)C1 [Example 4, (3S)-1-(5-chloro-9-oxo-xanthen-3-yl)pyrrolidine-3-carboxylic acid]	dose-dependently reduced cccDNA level
O=C(O)C1CCN(c2ccc3c(=O)c4cccc(F)c4oc3c2)C1 (centres unmarked) [Example 5, 1-(5-fluoro-9-oxo-xanthen-3-yl)pyrrolidine-3-carboxylic acid]	dose-dependently reduced cccDNA level
O=C(O)C1CCN(c2ccc3c(=O)c4c(Cl)ccc(Cl)c4oc3c2)C1 (centres unmarked) [Example 26, 1-(5,8-dichloro-9-oxo-xanthen-3-yl)pyrrolidine-3-carboxylic Acid]	dose-dependently reduced cccDNA level
